Measured values: US10738074B2, “Cyclic di-nucleotide compounds as STING agonists” (Merck Sharp & Dohme Corp., priority 2015, dated 2020)

Experiments:
full-length HAQ STING = full-length HAQ STING (Homo sapiens (Human), UniProt Q86WV6, G230A/H232R/R293Q/R71H); assay: 3H-cGAMP filtration binding assay (HAQ STING); settings: competition with tritiated cGAMP, HAQ STING membrane
Text: (§1) The ability of compounds to bind STING is quantified by the ability to compete with tritiated cGAMP ligand for human STING receptor membrane using a radioactive filter-binding assay. The binding assay employs STING receptor obtained from Hi-Five cell membranes overexpressing full-length HAQ STING prepared in-house and tritiated cGAMP ligand also purified in-house.
as §1, with “their” for “the”, “Trichoplusia ni” for “Hi-Five”, “membranes (Tni; Expression Systems, cat #94-002F, www.exrpressionsystems.com)” for “membranes”
The basic HAQ STING filtration assay protocol is as follows:
Compound and membrane then preincubated for 60 min at RT to allow compound binding to equilibrate. Following equilibration, 8 nM of [^3H] c-GAMP ligand was prepared by diluting into assay buffer, and 50 uL of this working stock was then manually added to each well of the assay plate. […] The filter plates were then dried at 55° C. for 30 min using a pressurized VWR oven before 30 uL of Ultima GoldF scintillate was added to each well. Tritium levels for each reaction well were then measured using a PerkinElmer TopCount plate reader.
(§2) After normalization to controls, the percent activity for each compound concentration was calculated by measuring the amount of remaining radioactivity. The plot of percent activity versus the log of compound concentration was fit with a 4-parameter dose response equation to calculate EC50 values.

full-length WT STING = full-length WT STING (Homo sapiens (Human), UniProt Q86WV6, H232R); assay: 3H-cGAMP filtration binding assay (WT STING); settings: competition with tritiated cGAMP, WT STING membrane
Sequence of full-length WT STING (Q86WV6 other isoform, or with tags, fused parts or gaps H232R (already in the parent)): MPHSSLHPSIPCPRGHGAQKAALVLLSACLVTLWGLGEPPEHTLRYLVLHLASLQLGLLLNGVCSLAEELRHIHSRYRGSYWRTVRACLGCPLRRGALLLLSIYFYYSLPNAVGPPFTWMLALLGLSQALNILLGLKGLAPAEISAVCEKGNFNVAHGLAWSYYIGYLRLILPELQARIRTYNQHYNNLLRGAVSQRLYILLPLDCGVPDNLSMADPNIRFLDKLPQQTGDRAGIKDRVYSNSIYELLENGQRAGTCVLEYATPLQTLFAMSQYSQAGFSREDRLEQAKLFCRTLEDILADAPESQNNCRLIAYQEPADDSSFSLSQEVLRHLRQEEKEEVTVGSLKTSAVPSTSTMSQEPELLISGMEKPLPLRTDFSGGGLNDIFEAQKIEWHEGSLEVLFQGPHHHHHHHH
Text: as §1, with “their” for “the”, “Trichoplusia ni” for “Hi-Five”, “membranes (Tni; Expression Systems, cat #94-002F, www.expressionsystems.com)” for “membranes”, “WT” for “HAQ”
The basic WT STING filtration assay protocol is as follows:
The filter plates were then dried at 55° C. for 30 min using a pressurized VWR oven before 30 uL of Ultima GoldF scintillate was added to each well. Tritium levels for each reaction well were then measured using a PerkinElmer TopCount plate reader.
as §2

THP1 cells = assay: IFN-β secretion in THP1 cell culture (5 h); assay type: cell-based, human; settings: IFN-β secretion, THP1 cells, 5 h, 30 μM
Description: The ability of compounds to stimulate the secretion of interferon-beta from THP1 cells was measured using a human IFN-β AlphaLISA kit (Perkin Elmer, Cat. No. AL265F). The basic protocol is as follows:
A Labcyte Echo 550 acoustic dispenser was used to transfer 120 nL of compound dissolved in DMSO into the wells of an empty, sterile 384-well microplate, (Corning, Cat. No. 3712). THP1 cells (American Type Culture Collection, Cat. No. TIB202) previously frozen in Recovery Medium (Life Technologies, Cat. No. 12648-010) were thawed and immediately diluted 10-fold into 37° C. assay medium (RPMI 1640+L-Glutamine & phenol red, Life Technologies, Cat. No. 11875-085; 0.5% heat inactivated fetal bovine serum, Sigma Aldrich, Cat. No. F4135; 1 mM Sodium Pyruvate, Life Technologies, Cat. No. 11360-070; lx non-essential amino acids; Life Technologies, Cat. No. 11140-050). The cell viability and count was ascertained using a Beckman Coulter V-Cell XR cell counter. The cells suspension was centrifuged at 200×g for 5 min at RT. Cells were resuspended to a density of 0.8×10^6/mL in 37° C. assay medium. Subsequent liquid transfers were performed using either a Matrix electronic multichannel pipette or an Agilent Bravo Automated Liquid Handling Platform.
The assay was started by dispensing 40 μL of the previously prepared cell suspension into the wells of the plate containing compounds. After 5 h incubation at 37° C., 5% CO2 in a humidified atmosphere, the plate of cells and compounds was centrifuged at 200×g for 5 min at RT. From each well, 5 μL of supernatant was transferred into corresponding wells of a white 384-well plate (Perkin Elmer, Cat. No. 6005620). To these supernatant-containing wells was added 10 μL of 5× Anti-Analyte Acceptor beads (50 μg/mL of AlphaLISA HiBlock Buffer) and incubated for 30 min at RT while shaking on an orbital plate shaker. To each well was added 10 μL of 5× Biotinylated Antibody Anti-analyte (5 nM in AlphaLISA HiBlock Buffer) and incubated on an orbital plate shaker for 60 min at RT or overnight at 4° C. To each well was added 25 μL of 2× SA-Donor beads (80 μg/mL in AlphaLISA HiBlock Buffer) and incubated for 30-45 min at RT in the dark while shaking on an orbital plate shaker. The plate was then read on a Perkin Elmer Envision (λex=680 nm, λem=[…]). The percent effect of the AlphaLISA signal at each compound concentration was calculated based on 30 uM cGAMP positive controls and 0.3% DMSO negative controls. The plot of percent effect versus the log of compound concentration was fit with a 4-parameter concentration response equation to calculate EC50 values. The test compounds were tested at concentrations 30000, 10000, 3333, 1111, 370.4, 123.4, 41.2, 13.7, 4.6, and 1.5 nM with 0.3% residual DMSO.
Compounds of the disclosure were evaluated for IFN-β secretion in THP1 cell culture as described above. The following table tabulates the biological data for these compounds as percent activation relative to 2′3′-cGAMP at the 30 μM concentration.

Sequence of full-length HAQ STING (Q86WV6 other isoform, or with tags, fused parts or gaps, stated change not applied): as the sequence (Q86WV6 other isoform, or with tags, fused parts or gaps H232R (already in the parent)) above, with R71H, G230A, R293Q counted along it

SMILES: Nc1nc2c(ncn2[C@H]2O[C@@H]3COP(=O)(O)O[C@@H]4[C@H](N)[C@@H](COP(=O)(O)O[C@@H]2[C@@H]3O)O[C@H]4n2cnc3c(N)ncnc32)c(=O)[nH]1 [Example 34]
- EC50 (full-length HAQ STING): < 1 nM
- EC50 (full-length WT STING): < 1 nM
- % Effect at 30 μM relative to 2′3′-cGAMP (THP1 cells): 132%
